This is an account of results in article PMC3032312 (Cell Death & Disease, 2010).

Data set [1] has as its system 36 selected tumor cell lines. Kind of data set: ATP-Lite cell viability assay. Type of data set: cell-based, human. As to conditions: 72 h.
Data set [2] deals with T1, Bcl-B (Homo sapiens, UniProt Q9HD36).
T1 sequence (Q9HD36 1-204): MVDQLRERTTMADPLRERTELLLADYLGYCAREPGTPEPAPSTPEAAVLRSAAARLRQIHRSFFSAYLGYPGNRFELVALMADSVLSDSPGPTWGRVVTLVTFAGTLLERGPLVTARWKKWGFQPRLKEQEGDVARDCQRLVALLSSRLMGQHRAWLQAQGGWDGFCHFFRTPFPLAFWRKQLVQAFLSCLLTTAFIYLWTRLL
The settings on record: displacement of fluorochrome-conjugated BH3 Bid peptide; ABT-737; cited from earlier work.

In data set [3] the test system is Bfl-1. As to conditions: displacement of fluorochrome-conjugated BH3 Bid peptide; cited from earlier work.
Data set [4] deals with Mcl-1. As to conditions: displacement of fluorochrome-conjugated BH3 Bid peptide; cited from earlier work.

In the case of `CN(C)CC[C@H](CSc1ccccc1)Nc1ccc(S(=O)(=O)NC(=O)c2ccc(N3CCN(Cc4ccccc4-c4ccc(Cl)cc4)CC3)cc2)cc1[N+](=O)[O-]` [ABT-737], the “cell killing effect in six of the studied cell lines” value in data set [1] (concentration range tested 0.1-30 μM) is listed as “no effect”. The “cytotoxic activity against leukemia/lymphoma lines” value in data set [1] (leukemia/lymphoma lines, ATP-Lite) is on record as “potent cytotoxic activity”. Also, the “IC50 values, Bcl-B” value in data set [2] is listed as “not active”. Also, in data set [3], the “IC50 values, Bfl-1” value was “not active”. For the same molecule, in data set [4], the “IC50 values, Mcl-1” value is “not active”.
